Reference: patent US7005271B1, “Method for the determination of the prethrombotic state” (priority 1994, dated 2006)

How the values were obtained:
[1] = system: U937 cells; experiment: DNA analysis by flow cytometry of U937 cells after apoptosis induction; assay type: cell-based; details: 40 μM 7β hydroxycholesterol
Protocol: U937 cells are grown in a humidified 5% CO2 atmosphere at 37° C., using RPMI 1640 medium with Glutamax-I, supplemented with 10% heat-inactivated fetal calf serum, 1 mM sodium pyruvate, non-essential amino acids and gentamicin icin at 5 μg/mL Cells are usually plated at an initial conentration of 1.10^5/ml. Apoptosis induction is achieved by 40 μM 7β hydroxycholesterol- or 5 μg/ml actinomycin D-treatment of U937 cells at 37° C. during 8 to 24 hours. Cells have to be seeded at 3 to 4.10^5 cells per ml 6 h before treatment. Cell supernatant is obtained by centrifugation of treated cells at 500 g during 7 min and CaCl2 is added to a final concentration of 10 mM before addition of 200 μl/well of supernatant. For each experiment, a control without 7β hydroxycholesterol or actinomycin D has to be performed and culture medium containing 10% fetal calf serum should also be tested. It has to be emphasized that the content of microparticles of 10% fetal calf serum was low, probably due to removal of most of the cell fragments at sterilizing ultrafiltration. The amount of captured microparticles is determined using the prothrombinase assay.
The Prothrombinase Activity is Correlated with DNA Analysis by Flow Cytometry (Table 2)

[2] = Storage stability of biotinylated annexin V; assay type: physicochemical
Protocol: After 90 min at 25° C., the reaction is stopped by adding IM Lysine/HCl to a final concentration of 10 mM. The biotinylated annexin V is finally dialysed overnight at 4° C. against Storage buffer.

Compound | % of hypodiploid DNA ([1]; 0 h treatment) | % of hypodiploid DNA ([1]; 8 h treatment) | % of hypodiploid DNA ([1]; 10 h treatment) | % of hypodiploid DNA ([1]; 12 h treatment) | % of hypodiploid DNA ([1]; 20 h treatment) | % of hypodiploid DNA ([1]; 22 h treatment) | storage stability ([2]; stored below 0° C.) | storage stability (anti-phospholipid potential) ([2]; stored for months at −80° C.)
CC(C)CCC[C@@H](C)[C@H]1CC[C@H]2[C@@H]3[C@@H](O)C=C4C[C@@H](O)CC[C@]4(C)[C@H]3CC[C@]12C [7β-hydroxycholesterol] | 2.75% | 9.43% | 12.58% | 18.31% | 35.03% | 41.54% |  | 
annexin-V^Bi: Human placenta annexin V biotinylated with biotin-X-OSu, insolubilized onto streptavidin-coated plates as capture receptor |  |  |  |  |  |  | stable for weeks | without detectable loss of anti-phospholipid potential
